According to PMC9299702, “Maytansinol Derivatives: Side Reactions as a Chance for New Tubulin Binders” (Chemistry (Weinheim an Der Bergstrasse, Germany), 2021):
Read-outs that look alike come from different tables or passages of the source.

Columns and labels:
A549 cells [1] = assay: Effects on cellular microtubules by immunofluorescence microscopy; type: cell-based, human; conditions: fluorescence microscopy; for concentration at which the microtubule destabilizing effect is observed in interphasic cells: interphase; for concentration at which the microtubule destabilizing effect is observed in mitotic cells: mitosis
Text: To do so, we performed fluorescence microscopy using A549 cells.
The effect of these compounds on the microtubule network and mitotic spindle was characterized in A549 tumor cells by fluorescence microscopy. […] Cells were immunostained for A)–I) α‐tubulin or A’)–I’) DNA, and A’’)–I’’) the images obtained were merged (tubulin in green and DNA in magenta). A)–A’’) Interphase cell treated with DMSO; notice the regular microtubule network evenly distributed in the cytoplasm. B)–B’’) Control metaphase cell with a normally distributed bipolar mitotic spindle in which all chromosomes are positioned in the metaphase plate. […] All images are shown at the same scale; scale bar: 10 μm.
In interphase the microtubule network covers the whole cytoplasm, while in dividing cells during metaphase there are regular bipolar spindles that allow the correct positioning and segregation of chromosomes in the subsequent division steps.
Indirect immunofluorescence images were obtained using A549 cells plated at a density of 130,000 cells/ml onto 12mm

A549 cells [2] = assay: Cytotoxicity (antiproliferation assay) in A549; type: cell-based, human
[3] = target: T1, maytansine site of tubulin (Bos taurus, UniProt Q6B856); assay: biochemical; type: binding, calf
T1 construct: Purified calf brain tubulin and chemicals were obtained as previously described; from tissue; host or cells: calf brain

A2780 cells = assay: Cytotoxicity (antiproliferation assay) in A2780; type: cell-based, human
A2780AD cells = assay: Cytotoxicity (antiproliferation assay) in A2780AD (pGp overexpressing); type: cell-based, human; conditions: for IC50: read-out: IC50 A2780AD; for R/S (resistance index): A2780AD versus A2780
tubulin [4] = target: T2, tubulin (Bos taurus, UniProt Q6B856); assay: Inhibition of tubulin assembly (turbidity time courses); type: biochemical, calf; conditions: 25 μM tubulin in GAB, 27.5 μM compound, stoichiometric ratio
T2 construct: Purified calf brain tubulin and chemicals were obtained as previously described; from tissue; host or cells: calf brain

tubulin [5] = tested on: tubulin; set-up: method as in PMID 21043240; conditions: compared with maytansine; cited from earlier work
[6] = Homo sapiens, A549 cell line, read-out: IC50 A549
[7] = competition against Fc maytansine
[8] = Homo sapiens, A2780 cell line, read-out: IC50 A2780
[9] = Homo sapiens, A2780AD cell line, pGp overexpressing
[10] = A549 cell line, read-out: IC50 A549
[11] = competition against Fc maytansine, read-out: K d
[12] = A2780 cell line, read-out: IC50 A2780
[13] = A2780AD cell line, pGp overexpressing
[14] = Homo sapiens, A549, read-out: IC50 A549
[15] = Homo sapiens, A2780, read-out: IC50 A2780

T2 sequence (Q6B856 whole entry): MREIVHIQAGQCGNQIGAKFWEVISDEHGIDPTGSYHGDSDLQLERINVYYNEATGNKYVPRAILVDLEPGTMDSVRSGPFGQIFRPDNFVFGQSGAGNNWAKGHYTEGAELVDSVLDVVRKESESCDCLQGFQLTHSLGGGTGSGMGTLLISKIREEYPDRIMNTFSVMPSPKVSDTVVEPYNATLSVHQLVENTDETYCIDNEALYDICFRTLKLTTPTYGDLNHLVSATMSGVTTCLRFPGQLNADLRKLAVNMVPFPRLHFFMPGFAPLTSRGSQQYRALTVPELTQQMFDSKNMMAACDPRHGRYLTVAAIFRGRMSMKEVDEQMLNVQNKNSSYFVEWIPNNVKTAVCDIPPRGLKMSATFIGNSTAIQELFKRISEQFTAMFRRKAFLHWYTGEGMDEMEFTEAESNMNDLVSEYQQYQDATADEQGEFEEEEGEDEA
T2 sequence (P81947 whole entry partner): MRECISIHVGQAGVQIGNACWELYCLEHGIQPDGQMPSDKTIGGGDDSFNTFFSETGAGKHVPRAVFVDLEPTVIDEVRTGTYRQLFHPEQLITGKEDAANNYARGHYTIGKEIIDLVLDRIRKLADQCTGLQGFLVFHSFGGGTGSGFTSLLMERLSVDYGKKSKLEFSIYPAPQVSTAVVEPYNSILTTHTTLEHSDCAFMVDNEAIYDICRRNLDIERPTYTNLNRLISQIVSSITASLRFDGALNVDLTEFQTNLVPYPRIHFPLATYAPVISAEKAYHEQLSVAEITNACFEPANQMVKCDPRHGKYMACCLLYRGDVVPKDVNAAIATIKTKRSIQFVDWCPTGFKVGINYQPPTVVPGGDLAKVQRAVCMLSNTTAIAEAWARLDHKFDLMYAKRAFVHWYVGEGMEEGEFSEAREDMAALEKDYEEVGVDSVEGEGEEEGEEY
T1 sequence (Q6B856 whole entry): as the sequence (Q6B856 whole entry) above
T1 sequence (P81947 whole entry partner): as the sequence (P81947 whole entry partner) above

COc1cc2cc(c1Cl)N(C)C(=O)C[C@H](OC(=O)[C@H](C)N(C)C(C)=O)[C@]1(C)O[C@H]1[C@H](C)[C@@H]1C[C@@](O)(NC(=O)O1)[C@H](OC)/C=C/C=C(\C)C2 [1 a, Maytansine, reference compound]
concentration at which the microtubule destabilizing effect is observed in interphasic cells (A549 cells [1]): 5 nM | concentration at which the microtubule destabilizing effect is observed in mitotic cells (A549 cells [1]): 5 nM | IC50 (A549 cells [2]; [6]): 0.278 ± 0.04 nM | Kd [3]: 14 ± 2 nM | Mean K b [3, 7]: 9.0±1.3×10^7 M^−1 | IC50 (A2780 cells; [8]): 0.31 ± 0.02 nM | IC50 (A2780AD cells; [9]): 19.5 ± 1.14 nM | Inhibition of tubulin assembly (tubulin [4]): completely abolishes tubulin polymerization

COc1cc2cc(c1Cl)N(C)C(=O)CC(O)C1(C)OC1C(C)C1CC(O)(NC(=O)O1)C(OC)/C=C/C=C(\C)C2 (centres unmarked) [1 b, Maytansinol]
inhibitory activity on tubulin polymerization (tubulin [5]): weaker inhibitory activity on tubulin polymerization than maytansine | concentration at which the microtubule destabilizing effect is observed in interphasic cells (A549 cells [1]): 100 nM | concentration at which the microtubule destabilizing effect is observed in mitotic cells (A549 cells [1]): 50 nM | IC50 (A549 cells [2]; [6]): 60 ± 3 nM | Kd [3]: 780 ± 40 nM | Mean K b [3, 7]: 1.30±0.06×10^6 M^−1 | IC50 (A2780 cells; [8]): 23.8 ± 1.65 nM | IC50 (A2780AD cells; [9]): 1460 ± 148 nM | Inhibition of tubulin assembly (tubulin [4]): noticeable effect at stoichiometric concentrations

COc1cc2cc(c1Cl)N(C)C(=O)C[C@H](OC(=O)c1ccccc1)[C@]1(C)O[C@H]1[C@H](C)[C@@H]1C[C@@](O)(NC(=O)O1)[C@H](OC)/C=C/C=C(\C)C2 [4 a]
concentration at which the microtubule destabilizing effect is observed in interphasic cells (A549 cells [1]): 10 nM | concentration at which the microtubule destabilizing effect is observed in mitotic cells (A549 cells [1]): 5 nM | IC50 (A549 cells [2]; [10]): 0.24 ± 0.03 nM | Mean K b [3, 7]: 2.0±0.×10^7 M^−1 | Kd [3, 11]: 51 ± 3 nM | IC50 (A2780 cells; [12]): 0.11 ± 0.01 nM | IC50 (A2780AD cells; [13]): 11 ± 1 nM | R/S (resistance index) (A2780AD cells): 100

COc1cc2cc(c1Cl)N(C)C(=O)CC(OC(C)=O)C1(C)OC1C(C)C1CC(O)(NC(=O)O1)C(OC)C=CC=C(C)C2 (centres unmarked) [4 b]
IC50 (A549 cells [2]; [10]): 1.2 ± 0.3 nM | Mean K b [3, 7]: 9±1×10^7 M^−1 | Kd [3, 11]: 11 ± 1 nM | IC50 (A2780 cells; [12]): 0.25 ± 0.01 nM | IC50 (A2780AD cells; [13]): 20 ± 1 nM | R/S (resistance index) (A2780AD cells): 80

C#CCCCCC(=O)OC1CC(=O)N(C)c2cc(cc(OC)c2Cl)CC(C)=CC=CC(OC)C2(O)CC(OC(=O)N2)C(C)C2OC12C (centres unmarked) [4 c]
IC50 (A549 cells [2]; [10]): 0.07 ± 0.008 nM | Mean K b [3, 7]: 5.4±0.5×10^7 M^−1 | Kd [3, 11]: 20 ± 2 nM | IC50 (A2780 cells; [12]): 0.033 ± 0.003 nM | IC50 (A2780AD cells; [13]): 4.7 ± 0.6 nM | R/S (resistance index) (A2780AD cells): 142

COc1cc2cc(c1Cl)N(C)C(=O)CC(OC(=O)c1ccccc1)C1(C)OC1C(C)C1C=C(NC(=O)O1)C(OC)C=CC=C(C)C2 (centres unmarked) [5 a]
IC50 (A549 cells [2]; [10]): > 570 nM | Mean K b [3, 7]: 9.2±0.3×10^5 M^−1 | Kd [3, 11]: 1090 ± 40 nM | IC50 (A2780 cells; [12]): 338 ± 4.65 nM | IC50 (A2780AD cells; [13]): 2630 ± 187 nM | Inhibition of tubulin assembly (tubulin [4]): strong inhibitors that completely abolished microtubule assembly

COc1cc2cc(c1Cl)N(C)C(=O)CC(OC(C)=O)C1(C)OC1C(C)C1C=C(NC(=O)O1)C(OC)C=CC=C(C)C2 (centres unmarked) [5 b]
IC50 (A549 cells [2]; [10]): 190 ± 40 nM | Mean K b [3, 7]: 1.17±0.04×10^6 M^−1 | Kd [3, 11]: 860 ± 30 nM | IC50 (A2780 cells; [12]): 130 ± 20 nM | IC50 (A2780AD cells; [13]): > 6160 nM | Inhibition of tubulin assembly (tubulin [4]): strong inhibitors that completely abolished microtubule assembly

C#CCCCCC(=O)OC1CC(=O)N(C)c2cc(cc(OC)c2Cl)CC(C)=CC=CC(OC)C2=CC(OC(=O)N2)C(C)C2OC12C (centres unmarked) [5 c]
IC50 (A549 cells [2]; [10]): 320 ± 40 nM | Mean K b [3, 7]: 5.6±0.4×10^5 M^−1 | Kd [3, 11]: 1800 ± 120 nM | IC50 (A2780 cells; [12]): 225 ± 15 nM | IC50 (A2780AD cells; [13]): > 7960 nM | Inhibition of tubulin assembly (tubulin [4]): mild

COc1cc2cc(c1Cl)N(C)C(=O)CC(O)C1(C)OC1C(C)C1C=C(C(OC)C=CC=C(C)C2)N(C(=O)c2ccccc2)C(=O)O1 (centres unmarked) [6 a]
IC50 (A549 cells [2]; [10]): > 1030 nM | Mean K b [3, 7]: 6±2×10^5 M^−1 | IC50 (A2780 cells; [12]): 2090 ± 99 nM | IC50 (A2780AD cells; [13]): 13500 ± 623 nM | Inhibition of tubulin assembly (tubulin [4]): strong inhibitors that completely abolished microtubule assembly

COc1cc2cc(c1Cl)N(C)C(=O)CC(OC(=O)c1ccccc1)C1(C)OC1C(C)C1C=C(C(OC)C=CC=C(C)C2)N(C(=O)c2ccccc2)C(=O)O1 (centres unmarked) [7 a]
IC50 (A549 cells [2]; [10]): 47 ± 6 nM | Mean K b [3, 7]: 5.0±0.5×10^5 M^−1 | Kd [3, 11]: 2000 ± 200 nM | IC50 (A2780AD cells; [13]): 3500 ± 320 nM | Inhibition of tubulin assembly (tubulin [4]): mild

COc1cc2cc(c1Cl)N(C)C(=O)CC(O)C1(C)OC1C(C)C=CC(=O)C(OC)C=CC=C(C)C2 (centres unmarked) [Compound 2]
IC50 (A549 cells [2]; [14]): 15 ± 2 nM | Mean K b [3, 7]: 1.42±0.08×10^6 M^−1 | Kd [3, 11]: 720 ± 50 nM | IC50 (A2780 cells; [15]): 9.64 ± 0.97 nM | IC50 (A2780AD cells; Homo sapiens, A2780AD): 981 ± 201 nM | Inhibition of tubulin assembly (tubulin [4]): weak inhibition

COc1cc2cc(c1Cl)N(C)C(=O)CC(O)C1(C)OC1C(C)C1C=C(NC(=O)O1)C(OC)C=CC=C(C)C2 (centres unmarked) [Compound 3]
IC50 (A549 cells [2]; [14]): 28 ± 2 nM | Mean K b [3, 7]: 1.20±0.03×10^6 M^−1 | Kd [3, 11]: 830 ± 20 nM | IC50 (A2780 cells; [15]): 74 ± 4 nM | IC50 (A2780AD cells; Homo sapiens, A2780AD): > 19700 nM | Inhibition of tubulin assembly (tubulin [4]): mild
